Laboratory results taken from patent US6706663B2, “Herbicidal 3-heterocyclic substituted benzisothiazole and benzisoxazole compounds” (Wyeth, priority 2000, dated 2004).

Assays:
[1] = test system: IPOHE (Ipomoea hederacea); experiment: Preemergence herbicidal evaluation; assay type: in vivo, (L.) Jacq.; details: preemergence, rated 4-5 weeks after treatment
[2] = test system: ECHCG (Echinochloa crus-galli); experiment: Postemergence herbicidal evaluation; assay type: in vivo, (L.) Beau; details: postemergence
How it was run: (§1)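 Seedlings grown about two weeks in flats, sprayed, then kept under standard greenhouse care. Rated visually 4–5 weeks after treatment on a 0–9 scale (stand, vigour, malformation, size, chlorosis, overall appearance) relative to untreated control; repeat tests averaged.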

[3] = test system: GLXMAW (Soybean, Williams); experiment: Postemergence herbicidal evaluation; assay type: in vivo, Glycine max, (L.) Merr. cv Williams; details: postemergence
How it was run: as §1

[4] = test system: AMBEL (Ambrosia artemisifolia); experiment: Preemergence herbicidal evaluation; assay type: in vivo, L.; details: preemergence, rated 4-5 weeks after treatment
How it was run: (§2)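 Visual 0–9 rating versus control (stand, vigor, malformation, size, chlorosis, overall appearance), scored four to five weeks post-treatment. Preemergence spray of aqueous acetone solution onto freshly seeded soil cups; plants grown under conventional greenhouse care.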

[5] = test system: ABUTH (Abutilon theophrasti); experiment: Preemergence herbicidal evaluation; assay type: in vivo, Medic.; details: preemergence, rated 4-5 weeks after treatment
[6] = test system: GLXMA (Soybean); experiment: Preemergence herbicidal evaluation; assay type: in vivo, Glycine max, (L.) Merr.; details: preemergence, rated 4-5 weeks after treatment
[7] = test system: IPOHE (Ipomoea hederacea); experiment: Postemergence herbicidal evaluation; assay type: in vivo, (L.) Jacq.; details: postemergence
How it was run: as §1

[8] = test system: ZEAMX (Corn, Field); experiment: Postemergence herbicidal evaluation; assay type: in vivo, Zea mays, L.; details: postemergence
How it was run: as §1

[9] = test system: ZEAMX (Corn, Field); experiment: Preemergence herbicidal evaluation; assay type: in vivo, Zea mays, L.; details: preemergence, rated 4-5 weeks after treatment
[10] = test system: GALAP (Galium aparine); experiment: Postemergence herbicidal evaluation; assay type: in vivo; details: postemergence
How it was run: as §1

[11] = test system: CASOB (Cassia obtusifolia); experiment: Postemergence herbicidal evaluation; assay type: in vivo, L.; details: postemergence
How it was run: as §1

[12] = test system: AMBEL (Ambrosia artemisifolia); experiment: Postemergence herbicidal evaluation; assay type: in vivo, L.; details: postemergence
How it was run: as §1

[13] = test system: CHEAL (Chenopodium album); experiment: Postemergence herbicidal evaluation; assay type: in vivo, L.; details: postemergence
How it was run: as §1

[14] = test system: ECHORC (Echinochloa oryzoides); experiment: Flooded paddy, preemergence weed control; assay type: in vivo, Echinochloa oryzoides (Ard.) Fritsch.; details: rated 3-4 weeks after treatment, 0-9 rating scale
How it was run: (§3)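 Seeds or propagules were planted in the top 0.5 cm of silt loam soil and kept flooded 1.5–3 cm above the surface throughout, then held in the greenhouse. Injury was rated visually on a 0–9 scale against untreated controls, covering stand, vigor, malformation, size and chlorosis.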

[15] = test system: SAGPY (Sagittaria pygmaea); experiment: Flooded paddy, preemergence weed control; assay type: in vivo, L.; details: rated 3-4 weeks after treatment, 0-9 rating scale
How it was run: as §3

[16] = test system: ECHCG (Echinochloa crus-galli); experiment: Preemergence herbicidal evaluation; assay type: in vivo, (L.) Beau; details: preemergence, rated 4-5 weeks after treatment
How it was run: as §2

[17] = test system: ABUTH (Abutilon theophrasti); experiment: Postemergence herbicidal evaluation; assay type: in vivo, Medic.; details: postemergence
How it was run: as §1

[18] = test system: MOOVA (Monochoria vaginalis); experiment: Flooded paddy, preemergence weed control; assay type: in vivo, Presl.; details: rated 3-4 weeks after treatment, 0-9 rating scale
How it was run: as §3

[19] = test system: ORYSAT (Rice, Tebonnet); experiment: Postemergence herbicidal evaluation; assay type: in vivo, Oryza sativa, (L.) Tebonnet; details: postemergence
How it was run: as §1

[20] = test system: TRZAWR (Wheat, Winter, cv Riband); experiment: Postemergence herbicidal evaluation; assay type: in vivo, Triticum aestivum; details: postemergence
How it was run: as §1

[21] = test system: CYPIR (Cyperus iria); experiment: Flooded paddy, preemergence weed control; assay type: in vivo; details: rated 3-4 weeks after treatment, 0-9 rating scale
How it was run: as §3

[22] = test system: GALAP (Galium aparine); experiment: Preemergence herbicidal evaluation; assay type: in vivo; details: preemergence, rated 4-5 weeks after treatment
How it was run: as §2

[23] = test system: ORYSAT (Rice, Tebonnet); experiment: Flooded paddy, post-transplant rice tolerance; assay type: in vivo, Oryza sativa, (L.) Tebonnet; details: flooded paddy, post-transplant rice, rated 3-4 weeks after treatment, 0-9 rating scale
How it was run: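 Steps: transplant two ten-day-old seedlings into silt loam; flood to 1.5-3 cm above soil; apply herbicide post-transplant; maintain water on greenhouse benches; rate stand, vigor, malformation, size and chlorosis on a 0-9 visual scale versus control.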

[2-[5-[3,6-dihydro-3-methyl-2,6-dioxo-4-(trifluoromethyl)-1(2H)-pyrimidinyl]-1,2-benzisothiazol-3-1]-1,3-dioxolan-4-yl]methyl thiocyanate [Compound 89]
3.5: ZEAMX herbicidal rating ([8]; rate 0.0320 kg/ha) | ZEAMX herbicidal rating ([8]; rate 0.0620 kg/ha) | ZEAMX herbicidal rating ([8]; rate 0.1250 kg/ha)
3.0: ECHCG herbicidal rating ([2]; rate 0.0620 kg/ha) | Preemergence herbicidal rating GLXMA ([6]; rate 0.0620 kg/ha) | ZEAMX herbicidal rating ([8]; rate 0.0080 kg/ha) | Preemergence herbicidal rating ZEAMX ([9]; rate 0.1250 kg/ha) | GALAP herbicidal rating ([10]; rate 0.0320 kg/ha) | ECHORC herbicidal rating ([14]; rate 0.0320 kg/ha) | Preemergence herbicidal rating ECHCG ([16]; rate 0.1250 kg/ha) | ORYSAT herbicidal rating ([19]; rate 0.0320 kg/ha) | ORYSAT herbicidal rating ([19]; rate 0.0620 kg/ha) | TRZAWR herbicidal rating ([20]; rate 0.0320 kg/ha) | TRZAWR herbicidal rating ([20]; rate 0.0620 kg/ha) | Preemergence herbicidal rating GALAP ([22]; rate 0.0620 kg/ha)
7.0: Preemergence herbicidal rating IPOHE ([1]; rate 0.0620 kg/ha) | GLXMAW herbicidal rating ([3]; rate 0.0080 kg/ha) | IPOHE herbicidal rating ([7]; rate 0.0080 kg/ha) | GALAP herbicidal rating ([10]; rate 0.0620 kg/ha) | AMBEL herbicidal rating ([12]; rate 0.0080 kg/ha) | Preemergence herbicidal rating ECHCG ([16]; rate 0.2500 kg/ha) | Preemergence herbicidal rating GALAP ([22]; rate 0.2500 kg/ha)
8.0: Preemergence herbicidal rating IPOHE ([1]; rate 0.1250 kg/ha) | GLXMAW herbicidal rating ([3]; rate 0.0620 kg/ha) | CHEAL herbicidal rating ([13]; rate 0.0080 kg/ha) | ABUTH herbicidal rating ([17]; rate 0.0080 kg/ha) | MOOVA herbicidal rating ([18]; rate 0.1250 kg/ha) | CYPIR herbicidal rating ([21]; rate 0.1250 kg/ha)
9.0: Preemergence herbicidal rating IPOHE ([1]; rate 0.2500 kg/ha) | GLXMAW herbicidal rating ([3]; rate 0.1250 kg/ha) | Preemergence herbicidal rating AMBEL ([4]; rate 0.1250 kg/ha) | Preemergence herbicidal rating AMBEL ([4]; rate 0.2500 kg/ha) | Preemergence herbicidal rating ABUTH ([5]; rate 0.0620 kg/ha) | Preemergence herbicidal rating ABUTH ([5]; rate 0.1250 kg/ha) | Preemergence herbicidal rating ABUTH ([5]; rate 0.2500 kg/ha) | Preemergence herbicidal rating GLXMA ([6]; rate 0.2500 kg/ha) | IPOHE herbicidal rating ([7]; rate 0.0320 kg/ha) | IPOHE herbicidal rating ([7]; rate 0.0620 kg/ha) | IPOHE herbicidal rating ([7]; rate 0.1250 kg/ha) | GALAP herbicidal rating ([10]; rate 0.1250 kg/ha) | CASOB herbicidal rating ([11]; rate 0.0080 kg/ha) | CASOB herbicidal rating ([11]; rate 0.0320 kg/ha) | CASOB herbicidal rating ([11]; rate 0.0620 kg/ha) | CASOB herbicidal rating ([11]; rate 0.1250 kg/ha) | AMBEL herbicidal rating ([12]; rate 0.0320 kg/ha) | AMBEL herbicidal rating ([12]; rate 0.0620 kg/ha) | AMBEL herbicidal rating ([12]; rate 0.1250 kg/ha) | CHEAL herbicidal rating ([13]; rate 0.0320 kg/ha) | CHEAL herbicidal rating ([13]; rate 0.0620 kg/ha) | CHEAL herbicidal rating ([13]; rate 0.1250 kg/ha) | SAGPY herbicidal rating ([15]; rate 0.1250 kg/ha) | ABUTH herbicidal rating ([17]; rate 0.0320 kg/ha) | ABUTH herbicidal rating ([17]; rate 0.0620 kg/ha) | ABUTH herbicidal rating ([17]; rate 0.1250 kg/ha)
4.0: ECHCG herbicidal rating ([2]; rate 0.1250 kg/ha) | Preemergence herbicidal rating AMBEL ([4]; rate 0.0620 kg/ha) | Preemergence herbicidal rating ZEAMX ([9]; rate 0.2500 kg/ha) | ORYSAT herbicidal rating ([19]; rate 0.1250 kg/ha) | TRZAWR herbicidal rating ([20]; rate 0.1250 kg/ha)
1.5: ORYSAT herbicidal rating ([19]; rate 0.0080 kg/ha) | TRZAWR herbicidal rating ([20]; rate 0.0080 kg/ha)
7.5: GLXMAW herbicidal rating ([3]; rate 0.0320 kg/ha)
5.0: ECHORC herbicidal rating ([14]; rate 0.1250 kg/ha)
2.0: GALAP herbicidal rating ([10]; rate 0.0080 kg/ha)
6.0: Preemergence herbicidal rating GLXMA ([6]; rate 0.1250 kg/ha) | Preemergence herbicidal rating GALAP ([22]; rate 0.1250 kg/ha) | ORYSAT herbicidal rating (transplanted rice tolerance) ([23]; rate 0.1250 kg/ha)
0.0: ECHCG herbicidal rating ([2]; rate 0.0080 kg/ha) | ECHCG herbicidal rating ([2]; rate 0.0320 kg/ha) | Preemergence herbicidal rating ZEAMX ([9]; rate 0.0620 kg/ha) | SAGPY herbicidal rating ([15]; rate 0.0320 kg/ha) | Preemergence herbicidal rating ECHCG ([16]; rate 0.0620 kg/ha) | MOOVA herbicidal rating ([18]; rate 0.0320 kg/ha) | CYPIR herbicidal rating ([21]; rate 0.0320 kg/ha) | ORYSAT herbicidal rating (transplanted rice tolerance) ([23]; rate 0.0320 kg/ha)
